# ChEMBL document CHEMBL1125053, “Dihydropyrimidine calcium channel blockers. 2. 3-substituted-4-aryl-1,4-dihydro-6-methyl-5-pyrimidinecarboxylic acid esters as potent mimics of dihydropyridines” (J Med Chem, 1990)
# Biological target: Voltage-gated L-type calcium channel (Homo sapiens, UniProt Q13936+Q13698+Q01668+O60840)
# Assay: In vitro vasorelaxant activity (calcium channel blocking activity) was determined with potassium-depolarized rabbit thoracic aorta
# Type: functional, tissue-based
row,Compound,IC50 [nM]
1,CCOC(=O)N1C(=S)N=C(C)/C(=C(/O)OCC)C1c1cccc([N+](=O)[O-])c1 (centres undefined),17
2,CCO/C(O)=C1\C(C)=NC(=S)N(C(=O)N(C)C)C1c1cccc([N+](=O)[O-])c1 (centres undefined),270
3,CCOC(=O)N1C(=S)N=C(C)/C(=C(/O)OCC)C1c1ccccc1C(F)(F)F (centres undefined),26
4,CCOC(=O)N1C(=S)N=C(C)/C(=C(/O)OC(C)C)[C@H]1c1cccc([N+](=O)[O-])c1,2

# Further lines, results first:
row,IC50 [nM],Compound
1,710,CCOC(=O)C1=C(C)N=C(OC)NC1c1cccc([N+](=O)[O-])c1 (centres undefined)
2,26,CCOC(=O)C1=C(C)NC(OCC)=C(C(=O)OCC)C1c1cccc([N+](=O)[O-])c1 (centres undefined)
3,4,CCOC(=O)C1=C(C)NC(SCC)=C(C(=O)OCC)C1c1cccc([N+](=O)[O-])c1 (centres undefined)
4,50,CCCN1C(S)=NC(C)=C(C(=O)OCC)C1c1cccc([N+](=O)[O-])c1 (centres undefined)
5,130,CCOC(=O)C1=C(C)NC(SC)=NC1c1cccc([N+](=O)[O-])c1 (centres undefined)
